Assay results: PMC8512853, “Synthesis, Bioactivity, Pharmacokinetic and Biomimetic Properties of Multi-Substituted Coumarin Derivatives” (Molecules, 2021)

Experiments:
[1] = ABTS radical scavenging assay; conditions: 6 min
Experimental: The ABTS radical cation scavenging assay is a decolorization assay frequently used as an antioxidant activity estimation protocol. […] The absorbance is measured at 734 nm and the antioxidant capacity is compared to a standard antioxidant solution, such as ascorbic acid.
For the evaluation of antioxidant activity, the scavenging capacities of all samples were measured via the ABTS assay, as previously described by Kontogiorgis et al. with some modifications. Briefly, an ethanolic standard ABTS solution (7 mM) was prepared by the addition of ABTS salt and potassium persulfate. […] Each sample was diluted in DMSO and tested in triplicate. The tested mixture contained 10–20 µL of sample and 990–980 µL of the ABTS solution, for a total volume of 1 ml. Blank samples contained equal amounts of DMSO instead of the coumarin analogues, and ascorbic acid was used as a reference sample for the final evaluation of the ABTS scavenging capacity. All mixtures were stored at room temperature to allow decolorization and measured after 6 min. The percentage reduction of the ABTS radical was evaluated according to the following Equation (3):(3) % Reduction=Control OD (mean)−Sample OD (mean)/Control OD (mean)×100

[2] = Hydroxyl (HO•) free radical scavenging assay (competition with DMSO)
Text: The hydroxyl (HO^•) free radical is considered as the most toxic and reactive radical among the ROS, leading to cellular or protein damage, membrane destruction, and even to cellular death when encountered in excess concentration. In this context, the evaluation of the hydroxyl radical scavenging activity of the coumarin analogues was essential. Hydroxyl radicals are mainly produced by the Haber–Weiss reaction in the presence of iron or copper ions. In this protocol, iron-EDTA solution, which catalyzes the autooxidation of ascorbic acid, was used as the hydroxyl radical generation system. In general, the hydroxyl radicals formed oxidize the DMSO to form formaldehyde. The reaction involves the initial interaction of DMSO with the hydroxyl radicals to give methyl radicals, with the final product being formaldehyde, which is determined by Nash method. The intensity of the yellow solution formed was measured at 412 nm against a reagent blank.
For the evaluation of hydroxyl radical scavenging ability, the protocol described by Kontogiorgis et al. was used. In short, each sample was tested in quadruplicate (A, B, C, D). For A and B, 10 μL of coumarin analogs diluted in DMSO (100 mM) were added; for C and D were the respective blanks. Standards (containing DMSO solution) and blanks were all prepared in a similar manner; to the latter an equal amount (10 µL) of solvent was added instead of the tested analogues. According to the protocol described by Klein et al., standard solutions of EDTA, FeCl3, ascorbic acid, and buffer solution (pH 7.4) were also added to each of the tested mixtures. All mixtures were incubated at 37 °C for 30 min, and then 1 mL of Nash solution and […] of CCl3COOH solution were added. After a 10min incubation at 60 °C to allow the formation of the yellow mixture, the absorbance was measured at […].
The results were calculated as performance percentages in relation to the respective standards and blanks according to the following Equation (4):(4) % Scavenging ability= Mean OD(A+B)−Mean OD(C+D)/Mean OD(A+B)

[3] = MTT cell viability assay, HaCaT; assay type: cell-based, human; conditions: human, HaCaT cells, 100 μΜ, 24 h
Text: The MTT assay (3- [4,5-dimethylthiazol-2-yl] -2,5 diphenyl tetrazole) is based on the conversion of MTT to formazan crystals by living cells, which determines mitochondrial activity. Since for most cell populations total mitochondrial activity is related to the number of viable cells, this assay is widely used to measure the in vitro cytotoxic effects of drugs on various cell lines or primary cells. The principle of the MTT assay is that for most viable cells the mitochondrial activity is stable, and therefore, an increase or decrease in the number of viable cells is linearly related to mitochondrial activity. The mitochondrial activity of the cells is reflected by the conversion of the MTT tetrazole salt to formazan crystals (bright purple), which can be solubilized (in this protocol with DMSO) for homogeneous measurement. Thus, any increase or decrease in the number of viable cells can be detected by measuring the formazan concentration reflected in the optical density (OD) measurement at 540 nm with a reference absorption of 720 nm.
All the compounds were tested for their cytotoxic activity against blank and control samples in the human epidermal keratinocyte line (HaCaT), at the concentration of 100 μΜ, and the results are presented in Table 4.
This protocol was used for the evaluation of cell viability and all the cell lines. It must be noted that this assay describes the count of cells that remain alive after the treatment. For the experimental procedure a standard solution of MTT 1mg/mL in PBS was prepared which after filtration ([…] filter (Millipore, Carrigtwohill, Ireland)) was stored in the dark (4–8 °C) until use. In a 96-well plate, HaCaT, A549 and A375 cells were seeded in a number of 30 × 10^4 cells/well for each evaluation series respectively. The cells were incubated (37 °C, 5% CO2) for 24 h, followed by the addition of the tested analogues (100 μM, diluted in DMEM) and another 24-h incubation. Next, appropriate amount of MTT was added in the tested wells and the plate returned to the incubator for the next 4 h for the formation of the formazan crystals. The formazan crystals were then redissolved by adding DMSO (100 μL) and stirring lightly for 40 min, after which the absorbance was measured in a plate reader at 540 nm with a reference absorbance of 720 nm.
All samples were tested in triplicate, against a control (only cells), blank (no cells), and positive control (100 μM standard silibinin solution was used as a “cell-killing” standard).

| Compound | ABTS^•+ % (100 μΜ) [1] | HO^• % (100 μΜ) scavenging [2] | viability at 24 h, 100 μM [3] |
| --- | --- | --- | --- |
| CC(=O)Oc1cccc2oc(=O)c(-c3ccccc3Cl)c(C)c12 [Compound 3a, 5-acetyloxy-3-(2-chlorophenyl)-4-methyl-chromen-2-one] | no | 97.0% | 100% |
| CC(=O)Oc1cccc2oc(=O)c(-c3cccc(Cl)c3)c(C)c12 [Compound 3b, 5-acetyloxy-3-(3-chlorophenyl)-4-methyl-chromen-2-one] | 1.9% | 96.4% | 100% |
| CC(=O)Oc1cccc2oc(=O)c(-c3ccc(Cl)cc3)c(C)c12 [Compound 3c, 5-acetyloxy-3-(4-chlorophenyl)-4-methyl-chromen-2-one] | 15.0% | 30.8% | 100% |
| CC(=O)Oc1cccc2oc(=O)c(-c3ccccc3F)c(C)c12 [Compound 3d, 5-acetyloxy-3-(2-fluorophenyl)-4-methyl-chromen-2-one] | no | 100% | 100% |
| CC(=O)Oc1cccc2oc(=O)c(-c3cccc(F)c3)c(C)c12 [Compound 3e, 5-acetyloxy-3-(3-fluorophenyl)-4-methyl-chromen-2-one] | 2.0% | 85.2% | 96.5% |
| CC(=O)Oc1cccc2oc(=O)c(-c3ccc(F)cc3)c(C)c12 [Compound 3f, 5-acetyloxy-3-(4-fluorophenyl)-4-methyl-chromen-2-one] | no | 71.6% | 100% |
| CC(=O)Oc1cccc2oc(=O)c(-c3cccc(Br)c3)c(C)c12 [Compound 3g, 5-acetyloxy-3-(3-bromophenyl)-4-methyl-chromen-2-one] | 2.8% | 42.0% | 100% |
| CC(=O)Oc1ccc(-c2c(C)c3ccccc3oc2=O)cc1 [Compound 3h, 3-(4-acetyloxyphenyl)-4-methyl-chromen-2-one] | no | 100% | 96.2% |
| CC(=O)Oc1ccc(-c2c(C)c3cc(Br)ccc3oc2=O)cc1 [Compound 3i, 3-(4-acetyloxyphenyl)-6-bromo-4-methyl-chromen-2-one] | no | 64.5% | 100% |
| CC(=O)Oc1ccc(-c2c(C)c3cc(Cl)ccc3oc2=O)cc1 [Compound 3j, 3-(4-acetyloxyphenyl)-6-chloro-4-methyl-chromen-2-one] | no | 26.6% | 90.5% |
| CC(=O)Oc1ccc(-c2c(C)c3cc(Br)cc(Br)c3oc2=O)cc1 [Compound 3k, 3-(4-acetyloxyphenyl)-6,8-dibromo-4-methyl-chromen-2-one] | no | 92.9% | 100% |
| CC(=O)Oc1ccc(-c2c(C)c3ccccc3oc2=O)cc1OC(C)=O [Compound 3l, 3-(4,5-diacetyloxyphenyl)-4-methyl-chromen-2-one] | 2.8% | 10.7% | 100% |
| CC(=O)Oc1ccc(-c2c(C)c3cc(Br)ccc3oc2=O)cc1OC(C)=O [Compound 3m, 3-(4,5-diacetyloxyphenyl)-6-bromo-4-methyl-chromen-2-one] | no | 46.7% | 100% |
| CC(=O)Oc1ccc(-c2c(C)c3cc(Cl)ccc3oc2=O)cc1OC(C)=O [Compound 3n, 3-(4,5-diacetyloxyphenyl)-6-chloro-4-methyl-chromen-2-one] | no | 65.7% | 100% |
| CC(=O)Oc1ccc(-c2c(C)c3cc(Br)cc(Br)c3oc2=O)cc1OC(C)=O [Compound 3o, 3-(4,5-diacetyloxyphenyl)-6,8-dibromo-4-methyl-chromen-2-one] | no | 52.1% | 100% |
| Cc1c(-c2ccccc2Cl)c(=O)oc2cccc(O)c12 [Compound 4a, 3-(2-chlorophenyl)-5-hydroxy-4-methyl-chromen-2-one] | 56.5% | 37.3% | 100% |
| Cc1c(-c2cccc(Cl)c2)c(=O)oc2cccc(O)c12 [Compound 4b, 3-(3-chlorophenyl)-5-hydroxy-4-methyl-chromen-2-one] | 49.2% | 100% | 100% |
| Cc1c(-c2ccc(Cl)cc2)c(=O)oc2cccc(O)c12 [Compound 4c, 3-(4-chlorophenyl)-5-hydroxy-4-methyl-chromen-2-one] | 65.2% | 48.5% | 63.7% |
| Cc1c(-c2ccccc2F)c(=O)oc2cccc(O)c12 [Compound 4d, 3-(2-fluorophenyl)-5-hydroxy-4-methyl-chromen-2-one] | 73.3% | 21.9% | 100% |
| Cc1c(-c2cccc(F)c2)c(=O)oc2cccc(O)c12 [Compound 4e, 3-(3-fluorophenyl)-5-hydroxy-4-methyl-chromen-2-one] | 69.2% | 100% | 92.4% |
| Cc1c(-c2ccc(F)cc2)c(=O)oc2cccc(O)c12 [Compound 4f, 3-(4-fluorophenyl)-5-hydroxy-4-methyl-chromen-2-one] | 64.2% | 99.4% | 100% |
| Cc1c(-c2ccc(O)cc2)c(=O)oc2ccccc12 [Compound 4h, 3-(4-hydroxyphenyl)-4-methyl-chromen-2-one] | 8.6% | 72.2% | 100% |
| Cc1c(-c2ccc(O)cc2)c(=O)oc2ccc(Br)cc12 [Compound 4i, 6-bromo-3-(4-hydroxyphenyl)-4-methyl-chromen-2-one] | no | 100% | 100% |
| Cc1c(-c2ccc(O)cc2)c(=O)oc2ccc(Cl)cc12 [Compound 4j, 6-chloro-3-(4-hydroxyphenyl)-4-methyl-chromen-2-one] | no | 100% | 73% |
